Measured values taken from US20250195504A1, “NALTREXAMINE DERIVATIVES BEARING 5-MEMBER HETEROCYCLIC RING SYSTEMS AND OPIOID RECEPTOR MODULATORS” (VIRGINIA COMMONWEALTH UNIVERSITY, priority 2022, published 2025).
Where a name gives a salt, the structure may show the parent alone. Read-outs that look alike come from different tables or passages of the source.

Key:
[1] = molecular target: T1, DOR (Homo sapiens, UniProt P41143); assay: competitive radioligand binding assay, DOR ([3H]diprenorphine, CHO cell membranes); conditions: read-out: Ki (nM) DOR
T1 construct: expressed in transfected cells; host or cells: CHO

[2] = test system: morphine-pelleted mice; assay: opioid withdrawal study in morphine-pelleted mice; conditions: for withdrawal symptoms (wet-dog shakes, escape jumps, paw tremors): 1 mg/kg s.c., compared to 1 mg/kg NLX
[3] = molecular target: T2, MOR (Mus musculus, UniProt P42866); assay: MOR [35S]GTPγS functional assay (MOR-CHO membranes); type: biochemical; design: expressed in transfected cells; host or cells: CHO; conditions: read-out: MOR [35S]GTPγS Binding % Emax of DAMGO
Experimental: The [^35S]GTPγS functional assay was conducted to determine the efficacy of the compounds at the MOR. […] The Bradford protein assay was utilized to determine and adjust the concentration of protein required for the assay. Nonspecific binding was determined with 20 μM unlabeled GTPγS. Furthermore, 3 μM DAMGO was included in the assay as the maximally effective concentration of a full agonist for the MOR. After incubation, the bound radioactive ligand was separated from the free radioligand by filtration through a GF/B glass fiber filter paper and rinsed three times with ice-cold wash buffer (50 mM Tris-HCl, pH 7.2) using the Brandel harvester. Bound radioactivity was determined by liquid scintillation counting. All assays were determined in duplicate and repeated at least three times. Net stimulated [^35S]GTPγS binding was defined as agonist-stimulated minus basal binding in the absence of agonist. Percent of DAMGO-stimulated [^35S]GTPγS binding was defined as (net-stimulated binding by ligand/net-stimulated binding by 3 μM DAMGO)×100%.
Results were reported as mean values ±SEM.
The [^35S]-GTPγS binding assay was carried out as well to determine the functionality on the MOR of each compound. […] The [^35S]GTPγS functional assay was conducted to determine the efficacy of the compounds at the MOR, KOR and DOR. […] The Bradford protein assay was utilized to determine and adjust the concentration of protein required for the assay. Nonspecific binding was determined with 20 μM unlabeled GTPγS. Furthermore, 3 μM DAMGO/U50488H/SNC80 was included in the assay as the maximally effective concentration of a full agonist for the MOR/KOR/DOR. After incubation, the bound radioactive ligand was separated from the free radioligand by filtration through a GF/B glass fiber filter paper using a Brandel harvester. Bound radioactivity was determined by liquid scintillation counting. All assays were determined in duplicate and repeated at least three times. Net stimulated [^35S]GTPγS binding was defined as agonist-stimulated minus basal binding in the absence of agonist. Percent of DAMGO/U50488H/SNC80 stimulated [^35S]GTPγS binding was defined as (net-stimulated binding by ligand/net-stimulated binding by 3 μM DAMGO U50488H/SNC80)×100%.

[4] = test system: male Swiss Webster mice; assay: warm-water tail immersion (tail flick / tail-withdrawal) assay, antinociception; type: in vivo, mouse; conditions: Example 1 compounds; 10 mg/kg s.c., 20 min after injection
Experimental: In this assay, the duration for which mice kept their tails in the warm water was recorded.
All thirty-six compounds' antinociception were examined in tail immersion assay first to preclude any opioid receptor agonists.
Swiss Webster mice (six male mice for each group, 25-35 g, 6-8 weeks old) were used in this assay. Antinociception for all compounds was examined in male Swiss Webster mice. […] To prevent tissue damage, a 10 s maximum cutoff time was imposed. Antinociceptive response was calculated as the percentage of maximum possible effect (% MPE), where % MPE=[(test−control latency)/(10−control latency)]×100.
Warm-water tail immersion assay is a well-established assay for evaluating opioid analgesics, especially MOR agonists. […] In this context, all 24 compounds were first evaluated for their acute antinociception tail-withdrawal assay (FIG. 5A).
The tail-withdrawal test was performed using a water bath with the temperature maintained at 56±0.1° C. Baseline latency was measured before any injections. Each mouse was gently wrapped in a cloth with only the tail exposed. The distal one-third of the tail was immersed perpendicularly in water, and the mouse rapidly flicked the tail from the bath was seen as the first sign of discomfort. The duration of time the tail remained in the water bath was counted as the baseline latency. Untreated mice with baseline latency reaction times ranging from 2 to 4 seconds were used. Test latency was obtained 20 min later after each injection. A 10-second maximum cutoff latency was used to prevent any tissue damage. Antinociception was quantified as the percentage of maximal possible effect (% MPE), which was calculated as % MPE=[(test latency−control latency)/(10−control latency)]×100. The % MPE value was calculated for each mouse using 6 mice per group. Testing compounds were given 10 mg/kg (s.c.) to each mouse.

[5] = molecular target: T2, MOR; conditions: read-out: Ki (nM) MOR; Example 1 compounds (Tables 1, 2)
[6] = molecular target: T3, KOR (Mus musculus, UniProt P33534); assay: competitive radioligand binding assay, KOR ([3H]diprenorphine, CHO cell membranes); design: expressed in transfected cells; host or cells: CHO; conditions: read-out: Ki (nM) KOR
[7] = molecular target: Human recombinant opioid receptors (MOR) (Homo sapiens, UniProt P35372); conditions: read-out: MOR [35S]-GTPγS Binding EC50; MNTX, reported data; cited from earlier work
[8] = molecular target: Human recombinant opioid receptors (KOR) (Homo sapiens, UniProt P41145); conditions: read-out: KOR [35S]-GTPγS binding EC50; MNTX, reported data; cited from earlier work
[9] = test system: mice; assay: carmine red dye study (GI tract motility, morphine-induced constipation)
[10] = male rats, oral administration; cited from earlier work
[11] = molecular target: T3, KOR; conditions: read-out: Ki (nM) KOR; reference data adopted from literature; cited from earlier work
[12] = test system: male Swiss Webster mice; conditions: reference compounds, literature / previous studies; cited from earlier work
[13] = Example 1 compounds (Tables 1, 2)

With “17-Cyclopropylmethyl-3,14β-dihydroxy-4,5α-epoxy-6α-(2′-thienylacetamido)morphinan hydrochloride [Example 1 compound 27]” the Ki [1, 13] was 6.92 ± 1.63 nM.

In the case of “17-Cyclopropylmethyl-3,14β-dihydroxy-4,5α-epoxy-6β-(2′-thienylacetamido)morphinan hydrochloride [Example 1 compound 28]”, the Ki [1, 13] is reported as 64.9 ± 2.38 nM.

For `O=C(N[C@@H]1CC[C@@]2(O)[C@H]3Cc4ccc(O)c5c4[C@@]2(CCN3CC2CC2)[C@H]1O5)c1cccs1` [Example 1 compound 26, 17-Cyclopropylmethyl-3,14β-dihydroxy-4,5α-epoxy-6β-(2′-thienylcarboxamido)morphinan hydrochloride], the “withdrawal symptoms (wet-dog shakes, escape jumps, paw tremors)” value [2] was “significantly fewer wet-dog shakes, escape jumps, and paw tremors” and the “withdrawal symptoms at higher doses” value ([2]; 5 mg/kg and above, s.c.) was “did not precipitate significant withdrawal symptoms at doses as high as 10 times that of NLX”.

`O=C(CCc1cccs1)N[C@H]1CC[C@@]2(O)[C@H]3Cc4ccc(O)c5c4[C@@]2(CCN3CC2CC2)[C@H]1O5` [Example 1 compound 29, 17-Cyclopropylmethyl-3,14β-dihydroxy-4,5α-epoxy-6α-[3′-(thiophen-2″yl)propanamido]morphinan hydrochloride] showed an Emax [3] of 43.7 ± 1.71%.

In the case of `Cl.O=C(CCc1cccs1)N[C@@H]1CC[C@@]2(O)[C@H]3Cc4ccc(O)c5c4[C@@]2(CCN3CC2CC2)[C@H]1O5` [Example 1 compound 30, 17-Cyclopropylmethyl-3,14β-dihydroxy-4,5α-epoxy-6β-[3′-(thiophen-2 yl)propanamido]morphinan hydrochloride], the “antinociceptive effect (% MPE, in words)” value [4] is reported as “exhibited antinociception”, the Ki [5] is reported as 0.26 ± 0.01 nM and the Ki [6] is reported as 0.23 ± 0.02 nM. The Ki [1] was 4.87 ± 1.19 nM.

For `O=C(Cc1ccsc1)N[C@H]1CC[C@@]2(O)[C@H]3Cc4ccc(O)c5c4[C@@]2(CCN3CC2CC2)[C@H]1O5` [Example 1 compound 33, 17-Cyclopropylmethyl-3,14β-dihydroxy-4,5α-epoxy-6α-(3′-thienylacetamido)morphinan hydrochloride], the Emax [3] was 28.6 ± 1.15%.

With `O=C(Cc1ccsc1)N[C@@H]1CC[C@@]2(O)[C@H]3Cc4ccc(O)c5c4[C@@]2(CCN3CC2CC2)[C@H]1O5` [Example 1 compound 34, 17-Cyclopropylmethyl-3,14β-dihydroxy-4,5α-epoxy-6β-(3′-thienylacetamido)morphinan hydrochloride] the Emax [3] was 26.5 ± 3.17%.

For `C[N@+]1(CC2CC2)CC[C@]23c4c5ccc(O)c4O[C@H]2C(=O)CC[C@@]3(O)[C@H]1C5` [MNTX, methylnaltrexone], the EC50 [7] is given as over 10000 nM, the EC50 [8] is given as over 10000 nM and the “blockage of GI motility inhibition by morphine (in words)” value ([9]; 10 mg/kg oral gavage, morphine 5 mg/kg) is given as “no blockage was observed”. For the same compound, the oral bioavailability [10] was under 1%.

For `O=C(NC1CCC2(O)C3Cc4ccc(O)c5c4C2(CCN3CC2CC2)C1O5)c1ccncc1` (stereo not drawn) [NAP, 17-cyclopropylmethyl-3,14-dihydroxy-4,5α-epoxy-6β-[(4′-pyridyl)carboxamido]morphinan], the Ki [11] is listed as 278 ± 8 nM.

For `O=C(N[C@@H]1CC[C@@]2(O)[C@H]3Cc4ccc(O)c5c4C2(CCN3CC2CC2)[C@H]1O5)c1ccncc1F` [NFP], the “AD50 mg/kg (95% CL) to antagonize morphine mediated antinociception” value [12] is listed as 2.82 mg/kg.

For `C=CCN1CC[C@]23c4c5ccc(O)c4O[C@H]2C(=O)CC[C@@]3(O)[C@H]1C5` [NLX, naloxone, reference compound], the “withdrawal symptoms (wet-dog shakes, escape jumps, paw tremors)” value [2] is listed as “precipitated withdrawal symptoms” and the “AD50 mg/kg (95% CL) to antagonize morphine mediated antinociception” value [12] is listed as 0.05 mg/kg.

With `CN1CC[C@]23c4c5ccc(O)c4O[C@H]2[C@@H](O)C=C[C@H]3[C@H]1C5` [morphine] the “elongation of pellet defecation time compared to naïve group” value ([9]; morphine 10 mg/kg s.c.) was 124 min.
